Reference: patent US20240366540A1, “MITOFUSIN INHIBITORS AND USES THEREOF” (Albert Einstein College of Medicine, priority 2021, published 2024)
Starred links: 1 amine or outer side, 2 acyl side, 3 side chain; linkers in the order of their positions; H or OH if unused. Positions of bridges follow the written chain, without caps; N, C: chain ends. Non-standard residues stand in square brackets, D forms with d. Residues, ends and D or L forms follow the SMILES beside them. Chains are numbered I, II in the order given. Hexamethylenediamine = C(CCCN[*:2])CCN[*:1]; Dip = N[C@H](C(=O)O)C(c1ccccc1)c1ccccc1; Chg = N[C@H](C(=O)O)C1CCCCC1; NMeA = CN[C@@H](C)C(=O)O

T1: HR2 domain of MFN2 (residues 678-757) (Homo sapiens, UniProt O95140)
T1 sequence (O95140 678-757): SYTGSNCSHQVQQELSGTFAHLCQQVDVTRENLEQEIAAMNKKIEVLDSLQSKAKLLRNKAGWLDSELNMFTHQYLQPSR


Assays:
cells = assay: Cell death assay (Annexin V / propidium iodide); assay type: cell-based
Experimental: Cell death assay. Cells (2×10^5 cells/well) were seeded in a 6-well plate and treated with the indicated drugs for 6 hours. Cells were dissociated using Accutase (Thermo Fisher; Cat. #00-4555-56) in order to avoid accidental exposure of phosphatidylserine on the outer plasma membrane. Cell death was evaluated with Dead Cell Apoptosis Kit with Annexin V Alexa Fluor™ 488 & Propidium Iodide (Thermo Fisher; Cat. #V13241) according to manufacturer's protocol. Data was acquired by BD LSRII flow cytometer system using BD FACSDiva software. Data was analyzed by FlowJo (BD).

[1] = target: T1, HR2 domain of MFN2 (residues 678-757); assay: Microscale thermophoresis (MST) binding; details: His-tagged MFN2-HR2, 30° C.
Experimental: Microscale Thermopheresis. Freshly purified His-tagged MFN2-HR2 domain was used for Microscale Thermophoresis (MST) binding studies. For protein labelling, a fresh stock of 5 μM His-tag-RED-tris-NTA 2nd generation dye (Nanotemper) in 25 mM Hepes pH 7.5, 100 mM NaCl, 0.005% Tween-20 (assay buffer) was used to label 500 nM of MFN2-HR2 in the same buffer. The labeling reaction was incubated for 30 min at RT and centrifuged at 15.000×g at 4° C. for 10 min. Labelled protein from the supernatant was kept on ice and used immediately. Compounds were serially diluted in 100% DMSO. Immediately before mixing with labeled protein, the dilution series was transferred in assay buffer to reach 2% DMSO. 10 μl of each compound in the final series was mixed with 10 μl of labeled protein and samples were incubated for 5 min at 30° C. before MST measurement using a MonolithNT.115 instrument (Nanotemper). Peptides were diluted in assay buffer plus 2% DMSO and treated as above. […] Kd values were obtained from non-linear regression fits of normalized data to a three or four parameter logistic curve, using GraphPad Prism 9.

MEFs [2] = assay: Caspase-3/7 activation assay; assay type: cell-based, mouse; details: 6 hr, Caspase-Glo 3/7
Experimental: Caspase-3/7 activation assay. Cells (5×10^3 cells/well) were seeded in a 96-well white plate and treated with MASM7, MFI8. Caspase 3/7 activation was measured after 6 hr by addition of the Caspase-Glo 3/7 reagent according to the manufacturer's protocol (Promega). Luminescence was detected by a F200 PRO microplate reader (TECAN). Caspase assays were performed in at least triplicate and the data normalized to vehicle-treated control wells. Dilutions of MASM7 or MFI8 were performed using a TECAN D300e Digital Dispenser from 10 mM stocks.

MEFs [3] = assay: Mitochondrial aspect ratio (Mito AR), live cell imaging; details: for activity to promote mitochondrial fusion or fision: MASMs: fusion, MFIs: fission; for capacity to promote mitochondrial fragmentation in cells (activity of MFI8 analogue): compared with MFI8; for mitochondrial aspect ratio: MEFs, MitoTracker Green
Experimental: Live cell imaging. MEFs were seeded on chamber slides (MatTek Corporation: 35 mm dishes, No. 1.5, 14 mm glass diameter) at ˜70% confluence. […] Images were taken with Leica SP5 inverted confocal microscope. Data were analyzed with Image J software. >200 mitochondria were measured per condition in mitochondrial aspect ratio.
Measurement of mitochondrial aspect ratio (Mito AR). Images that depict stained mitochondria with mitotracker green were analyzed using FIJI We measured for each mitochondrion its length and width. Then, we divided the length by the width for each mitochondrion to get its mitochondrial aspect ratio. >200 mitochondria were measured per treatment.

[4] = target: the molecule itself; assay: blue native PAGE of digitonin lysates of isolated MEF mitochondria, anti-MFN2 blot

| direct binding to the HR2 domain of MFN2 (MST) [1] | Molecule | activity to promote mitochondrial fusion or fision (MEFs [3]) | capacity to promote mitochondrial fragmentation in cells (activity of MFI8 analogue) (MEFs [3]) | mitochondrial aspect ratio (MEFs [3]) | further results |
| --- | --- | --- | --- | --- | --- |
| did not demonstrate measurable binding | Cc1cccc(NC(C)c2ccccc2O)c1C (centres unmarked) [MFI22, 2-(1-((2,3-Dimethylphenyl)amino)ethyl)phenol] | inability or weak activity | significantly reduced the capacity of the compound to promote mitochondrial fragmentation | – | caspase-3/7 activity (MEFs [2]): did not increase caspase-3/7 activity; sensitization to BV6-induced cell death (cells; in combination with BV6): did not sensitize cells to BV6 treatment |
| demonstrated direct binding | Cc1cccc(NCc2cc(Cl)ccc2O)c1C [MFI23, 4-Chloro-2-(((2,3-dimethylphenyl)amino)methyl)phenol] | – | minimal effect on the activity | decreasing | – |
| did not demonstrate measurable binding | Cc1cccc(NC(C)c2cccc(Cl)c2)c1C (centres unmarked) [MFI26, N-(1-(3-chlorophenyl)ethyl)-2,3-dimethylaniline] | inability or weak activity | detrimental for the activity | – | – |

Further lines, the molecule ahead of its results:

| Molecule | direct binding to the HR2 domain of MFN2 (MST) [1] | activity to promote mitochondrial fusion or fision (MEFs [3]) | capacity to promote mitochondrial fragmentation in cells (activity of MFI8 analogue) (MEFs [3]) | mitochondrial aspect ratio (MEFs [3]) | further results |
| --- | --- | --- | --- | --- | --- |
| CN[C@@H](C)C(=O)N[C@H](C(=O)N1CCC[C@H]1C(=O)N[C@H](C(=O)NCCCCCCNC(=O)[C@@H](NC(=O)[C@@H]1CCCN1C(=O)[C@@H](NC(=O)[C@H](C)NC)C1CCCCC1)C(c1ccccc1)c1ccccc1)C(c1ccccc1)c1ccccc1)C1CCCCC1 [BV6, reference compound] (I: H-[NMeA][Chg]P[Dip] / II: H-[NMeA][Chg]P[Dip]; linker I:C-II:C via Hexamethylenediamine) | – | – | – | – | cell death upon BV6 treatment (cells; deletion of MFNs): sensitized cells to BV6 treatment |
| Cc1cccc(NCc2cc(Cl)ccc2O)c1 [MFI24, 4-Chloro-2-((m-tolylamino)methyl)phenol] | – | – | – | did not reduce mitochondrial aspect ratio | – |
| MFN2 (endogenous, in mitochondria isolated from MEFs) (other, mouse (MEFs), UniProt Q80U63 1-757, looked up, whole, on cells; The protein stood in isolated mitochondria, not on whole cells; It was solubilised with digitonin and resolved by blue native PAGE; also called mitofusin-2) MSLLFSRCNSIVTVKKDKRHMAEVNASPLKHFVTAKKKINGIFEQLGAYIQESASFLEDTHRNTELDPVTTEEQVLDVKGYLSKVRGISEVLARRHMKVAFFGRTSNGKSTVINAMLWDKVLPSGIGHTTNCFLRVGGTDGHEAFLLTEGSEEKKSVKTVNQLAHALHQDEQLHAGSMVSVMWPNSKCPLLKDDLVLMDSPGIDVTTELDSWIDKFCLDADVFVLVANSESTLMQTEKQFFHKVSERLSRPNIFILNNRWDASASEPEYMEEVRRQHMERCTSFLVDELGVVDRAQAGDRIFFVSAKEVLSARVQKAQGMPEGGGALAEGFQVRMFEFQNFERQFEECISQSAVKTKFEQHTVRAKQIAEAVRLIMDSLHIAAQEQRVYCLEMREERQDRLRFIDKQLELLAQDYKLRIKQITEEVERQVSTAMAEEIRRLSVLVDEYQMDFHPSPVVLKVYKNELHRHIEEGLGRNLSDRCSTAIASSLQTMQQDMIDGLKPLLPVSMRNQIDMLVPRQCFSLSYDLNCDKLCADFQEDIEFHFSLGWTMLVNRFLGPKNSRRALLGYSDQVQRPLPLTPANPSMPPLPQSSLTQEELMVSMVTGLASLTSRTSMGILVVGGVVWKAVGWRLIALSFGLYGLLYVYERLTWTTKAKERAFKRQFVEYASEKLQLIISYTGSNCSHQVQQELSGTFAHLCQQVDITRDNLEQEIAAMNKKVEALDSLQSRAKLLRNKAGWLDSELNMFTHQYLQPSR | – | – | – | – | binding result [4]: binds |
